Test results published in patent publication US11884675B2, “Heterocyclic compounds as triggering receptor expressed on myeloid cells 2 agonists and methods of use” (AMGEN INC., priority 2020, dated 2024).

What follows are molecules tested against hTREM2 (Homo sapiens, UniProt Q9NZC2) (assay: TREM2 activity by cellular Syk phosphorylation (AlphaScreen/AlphaLISA) in TREM2/DAP12-HEK cells, used for Examples 1-305). Conditions: HEK293 Cells.
Chain of hTREM2 (Q9NZC2 19-230): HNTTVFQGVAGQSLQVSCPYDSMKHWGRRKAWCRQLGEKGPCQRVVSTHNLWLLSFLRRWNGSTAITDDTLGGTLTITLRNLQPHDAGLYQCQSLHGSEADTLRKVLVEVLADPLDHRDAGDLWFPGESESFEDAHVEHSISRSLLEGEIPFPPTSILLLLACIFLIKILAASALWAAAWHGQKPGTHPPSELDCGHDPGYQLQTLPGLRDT
Chain of hTREM2 (O43914 22-113 partner): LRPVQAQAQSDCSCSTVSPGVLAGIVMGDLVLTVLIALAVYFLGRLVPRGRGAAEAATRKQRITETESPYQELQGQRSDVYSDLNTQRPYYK
Assay type: cell-based
Parameters: expressed in transfected cells
Summary of the method: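 Phospho-Syk (Tyr525/526) over total Syk quantified by AlphaScreen in lysates of cloned TREM2/DAP12-overexpressing HEK293 cells after 45 min compound treatment at room temperature, 1% final DMSO. Values expressed relative to 100 nM anti-TREM2 antibody (positive) and isotype IgG (negative) controls; curves fitted with 4-parameter logistic model.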
For `Cc1ccc2c(n1)nc(N1CCO[C@@H](c3cnn(C)c3)C1)nc2[C@H]1C[C@@H](C(F)(F)F)C1` [Example 275, (S)-2-(1-methyl-1H-pyrazol-4-yl)-4-(7-methyl-4-((1s,3R)-3-(trifluoromethyl)cyclobutyl)pyrido[2,3-d]pyrimidin-2-yl)morpholine], the EC50 was 3000 to 100000 nM and the “hTREM2 Emax” value was “+ (Emax>45 and ≤100)”.
For `CN1Cc2c(cc(N3CCO[C@@H](c4cnn(C5CC5)c4)C3)nc2-c2ccc(Cl)cc2F)C1=O` [Example 120, 4-(4-chloro-2-fluorophenyl)-6-((2S)-2-(1-cyclopropyl-1H-pyrazol-4-yl)-4-morpholinyl)-2-methyl-2,3-dihydro-1H-pyrrolo[3,4-c]pyridin-1-one], the EC50 was 50 to 500 nM and the “hTREM2 Emax” value was “++++ (Emax>250)”.
For `Cc1cnc2c(-c3ccc(Cl)cc3F)cc(N3CCO[C@@H](c4cnn(C)c4)C3)nc2n1` [Example 159, 8-(4-chloro-2-fluorophenyl)-3-methyl-6-((2S)-2-(1-methyl-1H-pyrazol-4-yl)-4-morpholinyl)pyrido [2,3-b]pyrazine], the EC50 was 50 to 500 nM and the “hTREM2 Emax” value was “+++ (Emax>150 and ≤250)”.
For `Cc1cc([C@H]2CN(c3nc4nc(C)cnc4c([C@H]4C[C@@H](C(F)(F)F)C4)n3)CCO2)ccn1` [Example 15, 7-methyl-2-((2S)-2-(2-methyl-4-pyridinyl)-4-morpholinyl)-4-(cis-3-(trifluoromethyl)cyclobutyl)pteridine], the EC50 was 50 to 500 nM and the “hTREM2 Emax” value was “++ (Emax>100 and ≤150)”.
In the case of `Cc1nc2nc([C@H]3CCO[C@@H](c4cnn(C)c4)C3)nc(C3CCC(F)(F)CC3)c2nc1C` (single isomer, unassigned) [Example 176], the EC50 is reported as no more than 50 nM and the “hTREM2 Emax” value is reported as “+++ (Emax>150 and ≤250)”.
In the case of `Cc1cc([C@H]2C[C@@H](c3cc4nc(C)c(C)nc4c(-c4ccc(Cl)cc4F)n3)CCO2)ccn1` (single isomer, unassigned) [Example 218], the EC50 is reported as no more than 50 nM and the “hTREM2 Emax” value is reported as “+++ (Emax>150 and ≤250)”.
With `Cc1nc2nc([C@@H]3CCO[C@H](c4cnn(C5CC5)c4)C3)nc(-c3ccc(C(F)(F)F)nc3)c2nc1C` [Example 301, 2-((2S,4R)-2-(1-cyclopropyl-1H-pyrazol-4-yl)tetrahydro-2H-pyran-4-yl)-6,7-dimethyl-4-(6-(trifluoromethyl)pyridin-3-yl)pteridine] the EC50 was no more than 50 nM and the “hTREM2 Emax” value was “+++ (Emax>150 and ≤250)”.
`Cc1cc([C@H]2C[C@H](c3nc(-c4ccc(F)cc4F)c4nc(C)c(C)nc4n3)CCO2)ccn1` (single isomer, unassigned) [Example 213] was tested, and the EC50 was 50 to 500 nM and the “hTREM2 Emax” value was “+++ (Emax>150 and ≤250)”.
In the case of `Cc1ccc(-c2nc(N3CCO[C@@H](c4cnn(C5CC5)c4)C3)nc3nc(C)cnc23)c(F)c1` [Example 9, 2-((2S)-2-(1-cyclopropyl-1H-pyrazol-4-yl)-4-morpholinyl)-4-(2-fluoro-4-methylphenyl)-7-methylpteridine], the EC50 is reported as no more than 50 nM and the “hTREM2 Emax” value is reported as “+++ (Emax>150 and ≤250)”.
With `Cc1ccc(-c2nc(N3CCO[C@@H](c4cnn(C5CC5)c4)C3)nc3nc(C)c(C)nc23)c(F)c1` [Example 38, 2-((2S)-2-(1-cyclopropyl-1H-pyrazol-4-yl)-4-morpholinyl)-4-(2-fluoro-4-methylphenyl)-6,7-dimethylpteridine] the EC50 was no more than 50 nM and the “hTREM2 Emax” value was “+++ (Emax>150 and ≤250)”.
`Cc1cc([C@H]2CN(c3nc(-c4ccc(F)cc4F)c4ncc(C)nc4n3)CCO2)ccn1` [Example 8, 4-(2,4-difluorophenyl)-7-methyl-2-((2S)-2-(2-methyl-4-pyridinyl)-4-morpholinyl)pteridine] was tested, and the EC50 was no more than 50 nM and the “hTREM2 Emax” value was “++ (Emax>100 and ≤150)”.
`Cc1nc2cc([C@@H]3CCO[C@H](c4cnn(C)c4)C3)nc(-c3ccc(F)cc3F)c2nc1C` [Example 257, 5-(2,4-difluorophenyl)-2,3-dimethyl-7-((2S,4R)-2-(1-methyl-1H-pyrazol-4-yl)tetrahydro-2H-pyran-4-yl)pyrido[3,4-b]pyrazine] was tested, and the EC50 was 500 to 3000 nM and the “hTREM2 Emax” value was “++ (Emax>100 and ≤150)”.
In the case of `Cc1nc2nc(N3CCO[C@@H](c4cnn(C)c4)C3)nc([C@H]3C[C@@H](C(F)(F)F)C3)c2nc1C` [Example 43, 6,7-dimethyl-2-((2S)-2-(1-methyl-1H-pyrazol-4-yl)-4-morpholinyl)-4-(cis-3-(trifluoromethyl)cyclobutyl)pteridine], the EC50 is reported as 50 to 500 nM and the “hTREM2 Emax” value is reported as “+++ (Emax>150 and ≤250)”.
In the case of `Cc1nc2nc(N3CCO[C@H]([C@@H]4CCOC4)C3)nc(-c3ccc(F)cc3F)c2nc1C` [Example 243, (R)-4-(4-(2,4-difluorophenyl)-6,7-dimethylpteridin-2-yl)-2-((R)-tetrahydrofuran-3-yl)morpholine], the EC50 is reported as 50 to 500 nM and the “hTREM2 Emax” value is reported as “++++ (Emax>250)”.
`Cc1ccc(-c2nc([C@H]3CCO[C@@H](c4cnn(C)c4)C3)cc3nc(C)c(C)nc23)c(F)c1` (single isomer, unassigned) [Example 196] was tested, and the EC50 was no more than 50 nM and the “hTREM2 Emax” value was “+++ (Emax>150 and ≤250)”.
For `Cc1cc([C@H]2CN(c3nc4nc(C)cnc4c([C@H]4C[C@@H](C(F)(F)F)C4)n3)CCO2)cnn1` [Example 280, (S)-4-(7-methyl-4-((1s,3R)-3-(trifluoromethyl)cyclobutyl)pteridin-2-yl)-2-(6-methylpyridazin-4-yl)morpholine], the EC50 was 500 to 3000 nM and the “hTREM2 Emax” value was “+++ (Emax>150 and ≤250)”.
For `Cc1nc2nc([C@H]3CCO[C@@H](c4cnn(C)c4)C3)cc(-c3ccc(Cl)cc3F)c2nc1C` (single isomer, unassigned) [Example 187], the EC50 was no more than 50 nM and the “hTREM2 Emax” value was “+++ (Emax>150 and ≤250)”.
With `Cc1nc2nc([C@@H]3CCO[C@@H](c4cnn(C)c4)C3)cc(-c3ccc(Cl)cc3F)c2nc1C` [Example 249, 8-(4-chloro-2-fluorophenyl)-2,3-dimethyl-6-((2R,4R)-2-(1-methyl-1H-pyrazol-4-yl)tetrahydro-2H-pyran-4-yl)pyrido[2,3-b]pyrazine] the EC50 was 500 to 3000 nM and the “hTREM2 Emax” value was “+++ (Emax>150 and ≤250)”.
With `Cc1nc2nc(N3CCO[C@H]([C@H]4CCOC4)C3)nc(-c3ccc(F)cc3F)c2nc1C` (single isomer, unassigned) [Example 36] the EC50 was 50 to 500 nM and the “hTREM2 Emax” value was “+++ (Emax>150 and ≤250)”.
With `Cc1cc([C@H]2CN(c3nc(CCC(F)(F)F)c4nc(C)c(C)nc4n3)CCO2)ccn1` [Example 41, 6,7-dimethyl-2-((2S)-2-(2-methyl-4-pyridinyl)-4-morpholinyl)-4-(3,3,3-trifluoropropyl)pteridine] the EC50 was 50 to 500 nM and the “hTREM2 Emax” value was “+ (Emax>45 and ≤100)”.
With `Cc1cnc2c(n1)nc(N1CCO[C@@H](c3cnn(C4CC4)c3)C1)nc2[C@H]1C[C@H](C(F)(F)F)C1` [Example 13, 2-((2S)-2-(1-cyclopropyl-1H-pyrazol-4-yl)-4-morpholinyl)-7-methyl-4-(trans-3-(trifluoromethyl)cyclobutyl)pteridine] the EC50 was no more than 50 nM and the “hTREM2 Emax” value was “+ (Emax>45 and ≤100)”.
In the case of `Cn1cc([C@H]2CN(c3cc4ncccc4c(-c4ccc(Cl)cc4F)n3)CCO2)cn1` [Example 234, (S)-4-(5-(4-chloro-2-fluorophenyl)-1,6-naphthyridin-7-yl)-2-(1-methyl-1H-pyrazol-4-yl)morpholine], the EC50 is reported as 500 to 3000 nM and the “hTREM2 Emax” value is reported as “+++ (Emax>150 and ≤250)”.
`Cc1cc2c(-c3ccc(F)cc3F)nc([C@@H]3CCO[C@@H](c4cnn(C)c4)C3)nc2nc1C` [Example 267, 4-(2,4-difluorophenyl)-6,7-dimethyl-2-((2R,4R)-2-(1-methyl-1H-pyrazol-4-yl)tetrahydro-2H-pyran-4-yl)pyrido[2,3-d]pyrimidine] was tested, and the EC50 was 500 to 3000 nM and the “hTREM2 Emax” value was “++ (Emax>100 and ≤150)”.
In the case of `Cc1nc2nc(N3CCO[C@@H](c4cnn(C)c4)C3)nc(C3=CCCC3)c2nc1C` [Example 128, 4-(1-cyclopenten-1-yl)-6,7-dimethyl-2-((2S)-2-(1-methyl-1H-pyrazol-4-yl)-4-morpholinyl)pteridine], the EC50 is reported as 500 to 3000 nM and the “hTREM2 Emax” value is reported as “+ (Emax>45 and ≤100)”.
In the case of `Cc1ccc2c(-c3ccc(Cl)cc3F)nc([C@@H]3CCO[C@H](c4cnn(C5CC5)c4)C3)nc2n1` [Example 260, 4-(4-chloro-2-fluorophenyl)-2-((2S,4R)-2-(1-cyclopropyl-1H-pyrazol-4-yl)tetrahydro-2H-pyran-4-yl)-7-methylpyrido [2,3-d]pyrimidine], the EC50 is reported as 500 to 3000 nM and the “hTREM2 Emax” value is reported as “+++ (Emax>150 and ≤250)”.
For `Cc1ncc([C@H]2CN(c3nc(-c4ccc(Cl)cc4F)c4nc(C)c(C)nc4n3)CCO2)cn1` (single isomer, unassigned) [Example 24], the EC50 was 50 to 500 nM and the “hTREM2 Emax” value was “++++ (Emax>250)”.
With `Cc1ccc(-c2nc(N3CCO[C@@H](c4cnn(C)c4)C3)nc3nc(C)c(C)nc23)cn1` [Example 20, 6,7-dimethyl-2-((2S)-2-(1-methyl-1H-pyrazol-4-yl)-4-morpholinyl)-4-(6-methyl-3-pyridinyl)pteridine] the EC50 was 500 to 3000 nM and the “hTREM2 Emax” value was “+++ (Emax>150 and ≤250)”.
In the case of `Cc1nc2nc(N3CCO[C@@H](c4cnn(C5CC5)c4)C3)nc([C@H]3C[C@H](C(F)F)C3)c2nc1C` [Example 48, 2-((2S)-2-(1-cyclopropyl-1H-pyrazol-4-yl)-4-morpholinyl)-4-(trans-3-(difluoromethyl)cyclobutyl)-6,7-dimethylpteridine], the EC50 is reported as no more than 50 nM and the “hTREM2 Emax” value is reported as “++ (Emax>100 and ≤150)”.
In the case of `Cc1ccc2cc(N3CCO[C@@H](c4cnn(C)c4)C3)nc(-c3ccc(Cl)cc3F)c2c1` [Example 236, (S)-4-(1-(4-chloro-2-fluorophenyl)-7-methylisoquinolin-3-yl)-2-(1-methyl-1H-pyrazol-4-yl)morpholine], the EC50 is reported as 3000 to 100000 nM and the “hTREM2 Emax” value is reported as “+++ (Emax>150 and ≤250)”.
For `Cc1nc2nc([C@H]3CCO[C@@H](c4cnn(C)c4)C3)nc(-c3ccc(Cl)cc3F)c2nc1C` (single isomer, unassigned) [Example 178], the EC50 was no more than 50 nM and the “hTREM2 Emax” value was “++++ (Emax>250)”.
`Cc1nc2nc(N3CCO[C@@H](c4cnn(C)c4)C3)nc(C3CC4(C3)CC(F)(F)C4)c2nc1C` [Example 46, 4-(6,6-difluorospiro[3.3]heptan-2-yl)-6,7-dimethyl-2-((2S)-2-(1-methyl-1H-pyrazol-4-yl)-4-morpholinyl)pteridine] was tested, and the EC50 was no more than 50 nM and the “hTREM2 Emax” value was “+++ (Emax>150 and ≤250)”.
